Laboratory results: PubChem BioAssay AID1208 (EPA DSSTox, 2008)
Activity calls are given as the source filed them.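 Rule for the calls: active = at least one rat sex group has a carcinogenic potency value and tumor site recorded; inconclusive = only rat studies were judged inadequate by the national testing program; inactive = no potency or tumor site, with negative rat experiments.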

System: rat chronic carcinogenicity bioassay, TD50
Test: DSSTox (CPDBAS) Carcinogenic Potency Database Summary Rat Bioassay Results
Details: for outcome: TD50_Rat_Note: no positive results; for Potency: stronger effect = lower value
From the text: The Carcinogenic Potency Database (CPDB) is a unique and widely used international resource of the results of over 6500 chronic, long-term animal cancer tests on over 1500 chemical substances. The CPDB provides easy access to the bioassay literature, with qualitative and quantitative analyses of both positive and negative experiments that have been published over the past 50 years in the general literature and by the National Cancer Institute/National Toxicology Program. The CPDB standardizes the diverse literature of cancer bioassays that vary widely in protocol, histopathological examination and nomenclature, and in the published author's choices of what information to provide in their papers. Results are reported in the CPDB for tests in rats, mice, hamsters, dogs, and nonhuman primates, and are based on the most positive result among all experiments for each sex-species. The DSSTox CPDBAS (all species) file incorporates data from the CPDB Summary Tables for the full list of over 1500 chemical substances tested in at least one species. Summary bioassay results for Rat (TD50, tumor sites, male, female, both sexes) are provided in the CPDB Summary Tables and the DSSTox CPDBAS file for over 1200 chemical substances.
TD50 is a standardized quantitative measure of carcinogenic potency (analogous to an LD50) and is reported in the CPDB Summary Table for each species. Activity Score for actives is computed by mapping of LOG10 (1/TD50_Rat_mmol) activity values spanning range [MIN, MAX] onto Integer 1-100 Activity Score range, where 100 is highest potency and 1 is lowest: Activity Score = 100 * INTEGER[(log10(1/Activity) - MIN)/(MAX - MIN)]. If activity is reported but no TD50_Rat_mmol value is computed, such as for a mixture, the Activity Score is assigned the activity value "50". […] Target sites are reported for each sex-species group with a positive result in the CPDB on the basis of a positive author's opinion for the particular site, using all results from both the general literature and NCI/NTP bioassays. If a chemical has two or more target sites listed, the results may be from different experiments, and a single site may be a target organ in more than one experiment, as well. Blank entry in TargetSites field indicates no results reported.

[1] = TargetSites_Rat_Female: no positive results
[2] = TargetSites_Rat_Female: mammary gland
[3] = TD50_Rat_Note: TD50 is harmonic mean of more than one positive test, TargetSites_Rat_Female: kidney
[4] = TargetSites_Rat_BothSexes: no positive results

O=NN(CC(=O)O)CC(=O)O
outcome [1]: inactive; no positive results

CNc1ccc(N(CCO)CCO)cc1[N+](=O)[O-]
Potency (TargetSites_Rat_Female: lung): 702 mg/kg/day

CC(C)N=[N+]([O-])C(C)C
Potency: 0.00268 mg/kg/day

CC/C=C(/CC)[N+](=O)[O-]
Potency (TargetSites_Rat_BothSexes: lung): 8.66 mg/kg/day

OC(c1ccc(Cl)cc1)(c1ccc(Cl)cc1)C(Cl)(Cl)Cl
outcome [1]: inactive; no positive results

O=C(O)CN(CCN(CC(=O)O)CC(=O)O)CC(=O)O
outcome [1]: inactive; no positive results

O=NN1CCCCC1
Potency (TD50_Rat_Note: TD50 is harmonic mean of more than one positive test, TargetSites_Rat_BothSexes: esophagus, liver, nasal cavity): 1.43 mg/kg/day

C[C@H]1CCCC(=O)CCC/C=C/c2cc(O)cc(O)c2C(=O)O1
outcome [1]: inactive; no positive results

OCC1CO1 (stereo not drawn)
Potency (TD50_Rat_Note: TD50 is harmonic mean of more than one positive test, TargetSites_Rat_Female: clitoral gland, hematopoietic system, mammary gland, nervous system, oral cavity, stomach, thyroid gland): 4.28 mg/kg/day

O=NN1CCCCC1c1cccnc1 (stereo not drawn)
Potency (TD50_Rat_Note: TD50 is harmonic mean of more than one positive test, TargetSites_Rat_Female: esophagus): 11.9 mg/kg/day

CCc1ccc(C(c2ccc(CC)cc2)C(Cl)Cl)cc1
outcome [1]: inactive; no positive results

OCc1ccccc1
outcome [1]: inactive; no positive results

CCC[C@@H]1O[C@@H]2C[C@H]3[C@@H]4CCC5=CC(=O)C=C[C@]5(C)[C@H]4[C@@H](O)C[C@]3(C)[C@]2(C(=O)CO)O1
Potency: 0.291 mg/kg/day

CCNC(=O)N(CCO)N=O
Potency (TD50_Rat_Note: TD50 is harmonic mean of more than one positive test, TargetSites_Rat_Female: mammary gland): 0.562 mg/kg/day

CC(=O)Nc1nc(NC(C)=O)nc(-c2ccc([N+](=O)[O-])o2)n1
Potency [2]: 14.1 mg/kg/day

O=C(O)COc1cc(Cl)c(Cl)cc1Cl
outcome [1]: inactive; no positive results

COC(=O)C(C)(C)Oc1ccc(-c2ccc(Cl)cc2)cc1
Potency (TD50_Rat_Note: TD50 is harmonic mean of more than one positive test, harmonic mean of TD50 includes a value for upper 99% confidence li, TargetSites_Rat_Female: liver): 4.78 mg/kg/day

COc1ccc(C)cc1N
Potency (TD50_Rat_Note: TD50 is harmonic mean of more than one positive test, TargetSites_Rat_Female: nasal cavity, urinary bladder): 98 mg/kg/day

O=P(OCC(Br)CBr)(OCC(Br)CBr)OCC(Br)CBr (stereo not drawn)
Potency [3]: 3.83 mg/kg/day

O=NN1CCC[C@H]1C(=O)O
outcome [1]: inactive; no positive results

Clc1ccc2c(c1)Oc1ccc(Cl)cc1O2
outcome [1]: inactive; no positive results

Cc1cc(=O)n(-c2ccccc2)n1C
Potency: 1230 mg/kg/day

NC(=O)c1cnccn1
outcome [1]: inactive; no positive results

O=NN1CCCCC1C(=O)O (stereo not drawn)
outcome [1]: inactive; no positive results

C=CCN(CC(C)=O)N=O
Potency (TargetSites_Rat_Female: esophagus, liver): 0.335 mg/kg/day

CN(C)P(=O)(N(C)C)N(C)C
Potency (TD50_Rat_Note: TD50 is harmonic mean of more than one positive test, TargetSites_Rat_BothSexes: nasal cavity): 0.0344 mg/kg/day

O=S(=O)(O)c1ccc(N=Nc2cc(S(=O)(=O)O)c3ccccc3c2O)c2ccccc12
outcome [1]: inactive; no positive results

Brc1cc(Br)c2cccnc2c1
outcome [1]: inactive; no positive results

CC(=O)Nc1ccc2c(c1)Cc1ccccc1-2
Potency (TD50_Rat_Note: TD50 is harmonic mean of more than one positive test, TargetSites_Rat_Female: liver, mammary gland, skin): 1.22 mg/kg/day

COc1cc(-c2ccc(N=Nc3c(S(=O)(=O)O)cc4cc(S(=O)(=O)O)cc(N)c4c3O)c(OC)c2)ccc1N=Nc1c(S(=O)(=O)O)cc2cc(S(=O)(=O)O)cc(N)c2c1O
Potency (TD50_Rat_Note: TD50 is harmonic mean of more than one positive test, TargetSites_Rat_Female: clitoral gland, ear Zymbals gland, hematopoietic system, large intestine, liver, oral cavity, skin, small intestine, ute): 27.5 mg/kg/day

O=[N+]([O-])c1ccc(-c2cnc3ccccn23)o1
Potency (TD50_Rat_Note: TD50 is harmonic mean of more than one positive test, TargetSites_Rat_Female: esophagus, kidney, mammary gland, stomach): 13.6 mg/kg/day

O=C(O)C(Cl)(Cl)Cl
outcome: inactive; no positive results

CC1(C)OC(=O)NC1=O
outcome: inactive; no positive results

O=CNc1nc(-c2ccc([N+](=O)[O-])o2)cs1
Potency (TD50_Rat_Note: TD50 is harmonic mean of more than one positive test, harmonic mean of TD50 includes a value for upper 99% confidence li, TargetSites_Rat_Female: urinary bladder): 4.25 mg/kg/day

C=CN1CCCC1=O
Potency (TD50_Rat_Note: TD50 is harmonic mean of more than one positive test, TargetSites_Rat_Female: liver, nasal cavity, oral cavity): 12 mg/kg/day

O=C1NS(=O)(=O)c2ccccc21
Potency (TD50_Rat_Note: TD50 is harmonic mean of more than one positive test, greater than ten-fold variation among TD50 values for positive res, TargetSites_Rat_Female: no positive results): 2140 mg/kg/day
outcome: inactive; no positive results

COc1cc2c(c3oc(=O)c4c(c13)CC[C@H]4O)[C@@H]1C=CO[C@H]1O2
Potency: 0.00247 mg/kg/day

CN(N=O)C(=O)c1ccccc1
Potency (TD50_Rat_Note: TD50 is harmonic mean of more than one positive test, TargetSites_Rat_Female: all tumor bearing animals): 3.23 mg/kg/day

CCC(=O)C(CC(C)N(C)C)(c1ccccc1)c1ccccc1 (stereo not drawn)
outcome [1]: inactive; no positive results

C/C=C/C=C/C(=O)O
outcome [1]: inactive; no positive results

C=CCO
outcome [1]: inactive; no positive results

CC(O)CCl (stereo not drawn)
outcome [1]: inactive; no positive results

O=NO
Potency (TD50_Rat_Note: TD50 is harmonic mean of more than one positive test, TargetSites_Rat_Female: liver, TargetSites_Rat_BothSexes: hematopoietic system): 167 mg/kg/day

O=C(CCl)c1ccccc1
outcome [1]: inactive; no positive results

c1ccc(Nc2ccc(Nc3ccccc3)cc2)cc1
outcome [1]: inactive; no positive results

NC(=S)NNC=O
outcome [1]: inactive

NCCS(=O)(=O)O
outcome [1]: inactive; no positive results

COc1ccc2c(c1)c(CC(=O)O)c(C)n2C(=O)c1ccc(Cl)cc1
Potency [2]: 1.15 mg/kg/day

Cc1ccc(S(=O)(=O)OCCN(C)N=O)cc1
Potency (TD50_Rat_Note: TD50 is harmonic mean of more than one positive test, TargetSites_Rat_Female: liver, vascular system): 4.8 mg/kg/day

Cc1ccc(O)c(C(C)(C)C)c1
outcome: inactive; no positive results

N#Cc1c(Cl)c(Cl)c(Cl)c(C#N)c1Cl
Potency [3]: 2270 mg/kg/day

COc1ccc([N+](=O)[O-])cc1N
Potency (TD50_Rat_Note: TD50 is harmonic mean of more than one positive test, TargetSites_Rat_Female: clitoral gland, skin): 53.9 mg/kg/day

COc1cc(OC)c2c3c(c(=O)oc2c1)CCC3
outcome: inactive; no positive results

C[C@H](CCc1ccccc1)NC[C@H](O)c1ccc(O)c(C(N)=O)c1
outcome [1]: inactive; no positive results

O=S(=O)(O)CCS
outcome: inactive; no positive results

c1ccc2c(c1)[nH]c1cnccc12
outcome: inactive; no positive results

OC(Cn1cncn1)(Cn1cncn1)c1ccc(F)cc1F
Potency [1]: 80.7 mg/kg/day

CN1C(=O)OC(C)(C)C1=O
outcome: inactive; no positive results

O=C(Nc1ccc([N+](=O)[O-])cc1Cl)c1cc(Cl)ccc1O
outcome [1]: inactive; no positive results

C1OC1C1CO1 (stereo not drawn)
outcome [1]: inactive

ClCc1ccccn1
outcome [1]: inactive; no positive results

COP(=O)(OC)C(O)C(Cl)(Cl)Cl (stereo not drawn)
outcome [4]: inactive

CC(=O)Oc1ccccc1C(=O)O
outcome [4]: inactive; no positive results

O=[N+]([O-])c1cccc2cccnc12
Potency (TD50_Rat_Note: TD50 is harmonic mean of more than one positive test, TargetSites_Rat_Female: stomach): 9.82 mg/kg/day

O=C1NC(=O)C(c2ccccc2)(c2ccccc2)N1
outcome [1]: inactive; no positive results

P
outcome [1]: inactive; no positive results

CCOC(=O)/C=C\C(=O)OCC
outcome: inactive; no positive results

C=CCc1ccc2c(c1)OCO2
Potency (TD50_Rat_Note: TD50 is harmonic mean of more than one positive test, TargetSites_Rat_BothSexes: liver): 441 mg/kg/day

O=c1[nH]cc(F)c(=O)[nH]1
outcome [1]: inactive; no positive results

ClC1=C(Cl)C2(Cl)C3C(Cl)C=CC3C1(Cl)C2(Cl)Cl (stereo not drawn)
outcome [1]: inactive; no positive results

Nc1nc(N)nc(-c2ccc([N+](=O)[O-])o2)n1
Potency [2]: 1.71 mg/kg/day

C1CNCCN1
outcome [1]: inactive; no positive results

CC(=O)Nc1ccc(CC(=O)O)cc1
outcome [1]: inactive; no positive results

CC(C)(Oc1ccc(C2CC2(Cl)Cl)cc1)C(=O)O (stereo not drawn)
Potency (TD50_Rat_Note: TD50 is harmonic mean of more than one positive test, harmonic mean of TD50 includes a value for upper 99% confidence li, TargetSites_Rat_Female: stomach): 1.97 mg/kg/day

Nc1ccccc1-c1ccccc1
outcome [1]: inactive; no positive results

CCOc1ccc(NC(C)=O)cc1N
outcome [1]: inactive; no positive results

NC(=O)N(CC(=O)O)N=O
Potency (TD50_Rat_Note: TD50 is harmonic mean of more than one positive test, greater than ten-fold variation among TD50 values for positive res, TargetSites_Rat_Female: mammary gland, small intestine): 4.31 mg/kg/day
